Article PMC10211317, “Identification of ARUK2002821 as an isoform-selective PI5P4Kα inhibitor” (RSC Medicinal Chemistry, 2023)

Columns and labels:
Assay in all cases: Premier Screen kinase panel (MRC PPU)
Format in all cases: biochemical
EPH-B1 = EPH-B1 (Homo sapiens, UniProt P54762); details: EPH-B1 (Entrez EPHB1), read-out: Residual activity (%)
Protocol: (§1) room temperature with shaking for 30 minutes. The kinase concentration in the eluates was measured by qPCR.
(§2) using ADP-GloTM assay at the MRC PPU International Centre for Kinase Profiling, University of Dundee.
(§3) Conducted by MRC PPU International Centre
(§4) Conducted by MRC PPU International Centre for […]

DYRK2 = DYRK2 (Homo sapiens, UniProt Q92630); details: DYRK2 (Entrez DYRK2), read-out: Residual activity (%)
Protocol: as §1, §2, §3, §4

TLK1 = TLK1 (Homo sapiens, UniProt Q9UKI8); details: TLK1 (Entrez TLK1), read-out: Residual activity (%)
Protocol: as §1, §2, §3, §4

IGF-1R = IGF-1R (Homo sapiens, UniProt P08069); details: IGF-1R (Entrez IGF1R), read-out: Residual activity (%)
Protocol: as §1, §2, §3, §4

PKCγ = PKCγ (Homo sapiens, UniProt P05129); details: read-out: Residual activity (%)
Protocol: as §1, §2, §3, §4

PRAK = PRAK (Homo sapiens, UniProt Q8IW41); details: PRAK (Entrez MAPKAPK5), read-out: Residual activity (%)
Protocol: as §1, §2, §3, §4

Src = Src (Homo sapiens, UniProt P12931); details: Src (Entrez SRC), read-out: Residual activity (%)
Protocol: as §1, §2, §3, §4

VEG-FR = VEG-FR (Homo sapiens, UniProt P17948); details: VEG-FR (Entrez FLT1), read-out: Residual activity (%)
Protocol: as §1, §2, §3, §4

p38d MAPK = p38d MAPK (Homo sapiens, UniProt O15264); details: p38d MAPK (Entrez MAPK12), read-out: Residual activity (%)
Protocol: as §1, §2, §3, §4

NEK2a = NEK2a (Homo sapiens, UniProt P51955); details: NEK2a (Entrez NEK2), read-out: Residual activity (%)
Protocol: as §1, §2, §3, §4

MNK1 = MNK1 (Homo sapiens, UniProt Q9BUB5); details: MNK1 (Entrez MKNK1), read-out: Residual activity (%)
Protocol: as §1, §2, §3, §4

CAMKKb = CAMKKb (Homo sapiens, UniProt Q96RR4); details: CAMKKb (Entrez CAMKK2), read-out: Residual activity (%)
Protocol: as §1, §2, §3, §4

TBK1 = TBK1 (Homo sapiens, UniProt Q9UHD2); details: TBK1 (Entrez TBK1), read-out: Residual activity (%)
Protocol: as §1, §2, §3, §4

MAP4K3 = MAP4K3 (Homo sapiens, UniProt Q8IVH8); details: MAP4K3 (Entrez MAP4K3), read-out: Residual activity (%)
Protocol: as §1, §2, §3, §4

PIM2 = PIM2 (Homo sapiens, UniProt Q9P1W9); details: PIM2 (Entrez PIM2), read-out: Residual activity (%)
Protocol: as §1, §2, §3, §4

MINK1 = MINK1 (Homo sapiens, UniProt Q8N4C8); details: MINK1 (Entrez MINK1), read-out: Residual activity (%)
Protocol: as §1, §2, §3, §4

MARK1 = MARK1 (Homo sapiens, UniProt Q9P0L2); details: MARK1 (Entrez MARK1), read-out: Residual activity (%)
Protocol: as §1, §2, §3, §4

IRAK1 = IRAK1 (Homo sapiens, UniProt P51617); details: IRAK1 (Entrez IRAK1), read-out: Residual activity (%)
Protocol: as §1, §2, §3, §4

TIE2 = TIE2 (Homo sapiens, UniProt Q02763); details: TIE2 (Entrez TEK), read-out: Residual activity (%)
Protocol: as §1, §2, §3, §4

MARK4 = MARK4 (Homo sapiens, UniProt Q96L34); details: MARK4 (Entrez MARK4), read-out: Residual activity (%)
Protocol: as §1, §2, §3, §4

CDK9-Cyclin T1 = CDK9-Cyclin T1 (Homo sapiens, UniProt P50750); details: CDK9-Cyclin T1 (Entrez CDK9 + CCNT1), read-out: Residual activity (%)
Protocol: as §1, §2, §3, §4

DAPK1 = DAPK1 (Homo sapiens, UniProt P53355); details: DAPK1 (Entrez DAPK1), read-out: Residual activity (%)
Protocol: as §1, §2, §3, §4

IKKb = IKKb (Homo sapiens, UniProt O14920); details: IKKb (Entrez IKBKB), read-out: Residual activity (%)
Protocol: as §1, §2, §3, §4

MELK = MELK (Homo sapiens, UniProt Q14680); details: MELK (Entrez MELK), read-out: Residual activity (%)
Protocol: as §1, §2, §3, §4

HIPK2 = HIPK2 (Homo sapiens, UniProt Q9H2X6); details: HIPK2 (Entrez HIPK2), read-out: Residual activity (%)
Protocol: as §1, §2, §3, §4

NEK6 = NEK6 (Homo sapiens, UniProt Q9HC98); details: NEK6 (Entrez NEK6), read-out: Residual activity (%)
Protocol: as §1, §2, §3, §4

CLK2 = CLK2 (Homo sapiens, UniProt P49760); details: CLK2 (Entrez CLK2), read-out: Residual activity (%)
Protocol: as §1, §2, §3, §4

Chain of IKKb (O14920 whole entry): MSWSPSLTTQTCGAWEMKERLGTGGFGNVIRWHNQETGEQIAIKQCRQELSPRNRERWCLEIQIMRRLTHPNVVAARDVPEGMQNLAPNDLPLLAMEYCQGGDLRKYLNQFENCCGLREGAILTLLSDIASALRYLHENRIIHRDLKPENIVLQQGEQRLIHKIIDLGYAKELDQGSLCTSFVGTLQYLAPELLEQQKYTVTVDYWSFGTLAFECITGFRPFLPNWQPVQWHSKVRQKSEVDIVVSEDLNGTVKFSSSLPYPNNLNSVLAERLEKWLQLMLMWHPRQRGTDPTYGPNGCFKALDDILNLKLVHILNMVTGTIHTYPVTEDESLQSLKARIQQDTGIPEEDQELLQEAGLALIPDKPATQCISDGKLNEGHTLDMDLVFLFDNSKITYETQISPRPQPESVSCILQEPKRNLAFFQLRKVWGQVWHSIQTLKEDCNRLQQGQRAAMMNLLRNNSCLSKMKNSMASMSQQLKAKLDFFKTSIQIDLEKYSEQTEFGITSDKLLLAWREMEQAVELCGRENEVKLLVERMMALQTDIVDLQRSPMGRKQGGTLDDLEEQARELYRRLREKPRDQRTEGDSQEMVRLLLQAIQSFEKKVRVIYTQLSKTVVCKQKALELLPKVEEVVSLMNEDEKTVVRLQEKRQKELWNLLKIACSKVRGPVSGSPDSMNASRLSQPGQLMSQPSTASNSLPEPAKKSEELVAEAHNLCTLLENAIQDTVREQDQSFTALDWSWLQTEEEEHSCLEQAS
Chain of NEK2a (P51955 whole entry): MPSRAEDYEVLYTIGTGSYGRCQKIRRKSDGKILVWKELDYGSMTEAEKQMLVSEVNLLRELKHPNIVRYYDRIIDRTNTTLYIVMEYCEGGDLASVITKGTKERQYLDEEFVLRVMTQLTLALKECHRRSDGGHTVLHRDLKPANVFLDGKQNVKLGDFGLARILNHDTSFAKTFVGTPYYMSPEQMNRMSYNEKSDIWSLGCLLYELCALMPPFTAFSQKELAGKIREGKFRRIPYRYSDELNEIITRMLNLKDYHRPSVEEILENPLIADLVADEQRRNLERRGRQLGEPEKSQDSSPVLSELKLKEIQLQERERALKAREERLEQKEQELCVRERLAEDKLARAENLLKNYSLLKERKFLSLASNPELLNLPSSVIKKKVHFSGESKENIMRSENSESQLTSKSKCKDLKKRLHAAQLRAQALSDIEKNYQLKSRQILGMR
Chain of MINK1 (Q8N4C8 whole entry): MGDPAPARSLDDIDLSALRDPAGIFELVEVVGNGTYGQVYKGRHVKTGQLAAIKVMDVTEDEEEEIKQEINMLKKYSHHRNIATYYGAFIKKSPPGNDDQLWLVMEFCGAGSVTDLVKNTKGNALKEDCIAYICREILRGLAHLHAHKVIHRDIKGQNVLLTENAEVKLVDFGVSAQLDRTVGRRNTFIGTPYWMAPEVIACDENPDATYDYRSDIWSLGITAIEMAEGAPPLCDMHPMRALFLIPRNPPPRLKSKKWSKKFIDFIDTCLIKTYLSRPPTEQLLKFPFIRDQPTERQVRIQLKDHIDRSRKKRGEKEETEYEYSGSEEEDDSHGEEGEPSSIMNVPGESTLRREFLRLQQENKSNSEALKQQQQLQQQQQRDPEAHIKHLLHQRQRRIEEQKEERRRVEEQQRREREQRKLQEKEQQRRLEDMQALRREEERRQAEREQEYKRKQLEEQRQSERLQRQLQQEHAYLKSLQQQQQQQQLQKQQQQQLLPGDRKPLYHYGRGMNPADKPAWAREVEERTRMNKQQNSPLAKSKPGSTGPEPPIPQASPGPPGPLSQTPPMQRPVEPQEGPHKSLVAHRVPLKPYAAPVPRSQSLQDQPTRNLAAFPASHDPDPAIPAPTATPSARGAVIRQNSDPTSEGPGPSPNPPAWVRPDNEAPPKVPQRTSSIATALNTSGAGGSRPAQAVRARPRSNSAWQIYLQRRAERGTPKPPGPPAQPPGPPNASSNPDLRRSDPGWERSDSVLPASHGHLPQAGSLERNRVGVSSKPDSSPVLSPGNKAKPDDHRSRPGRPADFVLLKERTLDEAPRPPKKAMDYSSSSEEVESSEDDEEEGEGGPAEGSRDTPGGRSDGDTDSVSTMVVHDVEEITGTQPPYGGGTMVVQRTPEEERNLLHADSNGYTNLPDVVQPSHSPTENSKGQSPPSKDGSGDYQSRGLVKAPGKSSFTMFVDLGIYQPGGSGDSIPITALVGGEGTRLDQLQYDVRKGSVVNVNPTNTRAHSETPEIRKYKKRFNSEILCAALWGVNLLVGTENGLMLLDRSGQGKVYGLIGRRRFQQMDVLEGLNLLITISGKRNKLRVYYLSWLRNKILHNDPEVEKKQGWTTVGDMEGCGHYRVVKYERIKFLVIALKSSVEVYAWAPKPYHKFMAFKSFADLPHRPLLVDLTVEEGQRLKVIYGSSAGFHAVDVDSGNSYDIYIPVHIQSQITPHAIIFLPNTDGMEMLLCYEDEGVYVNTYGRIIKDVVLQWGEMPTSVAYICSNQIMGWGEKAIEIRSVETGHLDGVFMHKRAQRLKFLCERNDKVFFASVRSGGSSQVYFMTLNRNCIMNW
Chain of DAPK1 (P53355 whole entry): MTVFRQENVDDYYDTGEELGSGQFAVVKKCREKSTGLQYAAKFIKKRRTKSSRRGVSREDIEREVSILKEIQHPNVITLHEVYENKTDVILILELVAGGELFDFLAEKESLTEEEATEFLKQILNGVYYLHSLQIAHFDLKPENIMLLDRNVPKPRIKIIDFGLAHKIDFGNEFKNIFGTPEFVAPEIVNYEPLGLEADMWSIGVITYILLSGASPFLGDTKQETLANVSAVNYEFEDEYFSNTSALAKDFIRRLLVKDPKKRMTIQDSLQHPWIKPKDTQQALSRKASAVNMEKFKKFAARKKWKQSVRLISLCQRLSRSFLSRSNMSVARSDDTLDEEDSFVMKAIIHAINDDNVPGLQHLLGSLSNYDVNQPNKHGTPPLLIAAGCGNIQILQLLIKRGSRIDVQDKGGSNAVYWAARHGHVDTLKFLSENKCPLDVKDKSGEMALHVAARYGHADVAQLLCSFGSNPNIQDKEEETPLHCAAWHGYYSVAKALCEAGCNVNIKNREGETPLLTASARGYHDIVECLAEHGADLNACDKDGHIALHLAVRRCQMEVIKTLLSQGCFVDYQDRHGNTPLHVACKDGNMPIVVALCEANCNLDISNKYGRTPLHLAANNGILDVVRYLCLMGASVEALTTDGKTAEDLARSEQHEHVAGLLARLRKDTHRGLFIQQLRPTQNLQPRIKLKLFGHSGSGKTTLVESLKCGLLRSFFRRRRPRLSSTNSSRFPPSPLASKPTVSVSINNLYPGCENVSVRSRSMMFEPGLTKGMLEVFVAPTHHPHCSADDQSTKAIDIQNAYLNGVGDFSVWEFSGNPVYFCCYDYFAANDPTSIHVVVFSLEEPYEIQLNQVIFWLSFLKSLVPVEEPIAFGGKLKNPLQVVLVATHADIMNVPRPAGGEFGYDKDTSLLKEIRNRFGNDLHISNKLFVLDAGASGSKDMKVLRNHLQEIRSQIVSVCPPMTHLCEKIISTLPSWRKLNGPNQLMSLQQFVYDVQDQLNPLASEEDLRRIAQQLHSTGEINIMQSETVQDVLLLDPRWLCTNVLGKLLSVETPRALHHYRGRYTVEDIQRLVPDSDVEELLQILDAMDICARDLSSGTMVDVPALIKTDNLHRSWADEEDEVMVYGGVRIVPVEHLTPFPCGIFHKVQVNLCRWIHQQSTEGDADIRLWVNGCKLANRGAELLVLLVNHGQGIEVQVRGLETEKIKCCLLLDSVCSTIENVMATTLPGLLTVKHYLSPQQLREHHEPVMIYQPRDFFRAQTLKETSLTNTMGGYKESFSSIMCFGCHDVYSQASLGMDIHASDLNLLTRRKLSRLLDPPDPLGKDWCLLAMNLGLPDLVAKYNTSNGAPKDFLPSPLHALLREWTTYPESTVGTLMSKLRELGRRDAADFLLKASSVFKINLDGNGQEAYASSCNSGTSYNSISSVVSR
Chain of DYRK2 (Q92630 whole entry): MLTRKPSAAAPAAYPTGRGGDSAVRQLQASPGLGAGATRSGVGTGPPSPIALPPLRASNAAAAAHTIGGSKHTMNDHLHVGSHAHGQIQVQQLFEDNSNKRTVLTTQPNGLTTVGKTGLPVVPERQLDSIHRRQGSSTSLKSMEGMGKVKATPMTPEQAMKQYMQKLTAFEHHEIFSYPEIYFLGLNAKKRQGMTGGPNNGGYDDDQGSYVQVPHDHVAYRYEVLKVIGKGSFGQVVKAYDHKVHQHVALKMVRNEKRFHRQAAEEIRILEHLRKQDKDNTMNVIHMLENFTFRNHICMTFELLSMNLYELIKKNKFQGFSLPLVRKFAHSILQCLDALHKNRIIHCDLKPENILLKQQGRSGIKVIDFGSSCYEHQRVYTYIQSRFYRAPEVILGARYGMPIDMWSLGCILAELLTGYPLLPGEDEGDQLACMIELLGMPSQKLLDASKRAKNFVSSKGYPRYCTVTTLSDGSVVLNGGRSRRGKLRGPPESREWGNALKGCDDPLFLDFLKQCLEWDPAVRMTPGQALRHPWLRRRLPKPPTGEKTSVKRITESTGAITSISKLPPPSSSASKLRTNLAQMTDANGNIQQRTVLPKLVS
Chain of p38d MAPK (O15264 whole entry): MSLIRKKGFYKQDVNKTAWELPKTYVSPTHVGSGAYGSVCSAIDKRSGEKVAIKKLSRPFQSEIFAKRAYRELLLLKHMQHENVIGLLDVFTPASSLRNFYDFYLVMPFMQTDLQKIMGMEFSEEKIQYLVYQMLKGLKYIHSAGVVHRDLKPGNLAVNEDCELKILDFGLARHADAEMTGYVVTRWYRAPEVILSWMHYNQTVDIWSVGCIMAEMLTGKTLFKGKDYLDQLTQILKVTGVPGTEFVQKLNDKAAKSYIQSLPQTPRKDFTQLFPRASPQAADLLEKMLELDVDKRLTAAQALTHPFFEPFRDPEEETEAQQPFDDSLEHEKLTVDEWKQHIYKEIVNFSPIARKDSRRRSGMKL

For `COc1ccc(Nc2ncnc3c2ccn3-c2ccc(C)c(C)c2)cc1Cl` [compound 36], the remaining activity at 1 µM (EPH-B1) was 126%, the remaining activity at 1 µM (DYRK2) was 108% and the remaining activity at 1 µM (TLK1) was 96%. It also gave a remaining activity at 1 µM (IGF-1R) of 119%, a remaining activity at 1 µM (PKCγ) of 107% and a remaining activity at 1 µM (PRAK) of 90%. It also gave a remaining activity at 1 µM (Src) of 93%, a remaining activity at 1 µM (VEG-FR) of 99% and a remaining activity at 1 µM (p38d MAPK) of 128%. It also gave a remaining activity at 1 µM (NEK2a) of 86%, a remaining activity at 1 µM (MNK1) of 87% and a remaining activity at 1 µM (CAMKKb) of 96%. It also gave a remaining activity at 1 µM (TBK1) of 92%, a remaining activity at 1 µM (MAP4K3) of 92% and a remaining activity at 1 µM (PIM2) of 97%. The remaining activity at 1 µM (MINK1) was 107%, the remaining activity at 1 µM (MARK1) was 113% and the remaining activity at 1 µM (IRAK1) was 98%. It also gave a remaining activity at 1 µM (TIE2) of 105%, a remaining activity at 1 µM (MARK4) of 76% and a remaining activity at 1 µM (CDK9-Cyclin T1) of 94%. The remaining activity at 1 µM (DAPK1) was 118%, the remaining activity at 1 µM (IKKb) was 75% and the remaining activity at 1 µM (MELK) was 92%. For the same compound, the remaining activity at 1 µM (HIPK2) was 90%, the remaining activity at 1 µM (NEK6) was 104% and the remaining activity at 1 µM (CLK2) was 107%.
